PMC11435625, “In Vitro Hepatic Clearance Evaluations of Per- and Polyfluoroalkyl Substances (PFAS) across Multiple Structural Categories” (Toxics, 2024)

What was measured:
[1] = system: pooled primary human hepatocyte suspensions; test: Hepatic clearance assay (substrate depletion, LC-MS); settings: in µL/min/10^6 cells; for CLint for HTTK: CLint value carried into HTTK/IVIVE; for in vitro CLint exp assay / Unadj Clint: pooled primary human hepatocyte suspensions; for Unadj Clint: unadjusted hepatic intrinsic clearance, Table S4
Protocol: The rate of hepatic clearance was determined as previously described for a set of PFAS [11]. Analysis was conducted across two laboratories at the Division of Translational Toxicology (DTT) at the National Institute of Environmental Health Sciences (NIEHS) and the Center for Computational Toxicology and Exposure at the USEPA. The PFAS analyzed in each lab can be found in the Supplementary Materials.
The hepatic clearance assay was performed at both the DTT and EPA laboratories as described below. The pooled human hepatocyte suspensions used in this work were purchased commercially and meet the ethical and scientific standards described in the Human Ethics Rule (40 CFR 26). The suspensions were prepared from hepatocytes obtained from de-identified donors by a commercial vendor.
PFAS stock solutions prepared in DMSO were added to prewarmed William’s E medium to make a 2X working stock solution (2 µM). […] The working stock solutions were then transferred to a 96-well polypropylene plate and placed in an incubator at 37 °C with 5% carbon dioxide prior to adding cells. Cryopreserved pooled primary human hepatocyte suspensions (50-donor pool, mixed gender; BioIVT; Westbury, NY, USA) were thawed and transferred to vials containing hepatocyte thawing medium. After centrifuging for 5–10 min at 100× g, thawing medium was removed, being careful not to disturb the cell pellet. The primary human hepatocytes were then resuspended in pre-warmed complete Williams E medium to achieve a cell density of ~1.0 × 10^6 viable cells/mL as determined by Trypan Blue exclusion. Cells were then added to the 96-well incubation plates containing PFAS to achieve a final density of ~0.5 × 10^6 viable cells/mL and a 1 μM assay concentration (Ctest), then placed in incubator on a shaker at 300 rpm. Triplicate samples were removed from the incubator at time points ranging from 0 to 240 min and quenched with a total crash in 2–3 volumes of ice-cold acetonitrile. Samples were spun at 4000× g for 20 min, and supernatants were transferred to new tubes and stored at <−70 °C until analysis. Media-only (no cell) and/or heat-inactivated hepatocytes were included as negative controls for each chemical to evaluate and estimate chemical loss due to nonmetabolic processes (e.g., hydrolysis). Phenacetin was included in all runs as an assay reference compound; EPA also included propranolol as an additional reference compound.
Assay samples were diluted in mobile phase and analyzed using a Thermo Vanquish UPLC system with a Thermo Hypersil Gold aQ C18 column (100 × 2.1 mm, 1.9 […], Thermo Fisher Scientific Inc.) coupled to a Q Exactive Plus mass spectrometer. Gradient elution was used in the chromatographic separations using water with 20 mM ammonium acetate (mobile phase A) and methanol (mobile phase B), with the following gradient program: 0.5–7 min, 30%–90% B; 7–8 min, 90% B; 8–9 min, 90%–30% B; and 9–10 min, 30% B. The first minute of each injection was diverted to waste to avoid introduction of excessive salts from incubation medium. Analysis was detected in negative ion mode. Samples were quantified against an external, matrix-matched calibration curve. Additional methodologic information is available in Table S2.
To perform SPE, a positive-pressure manifold was employed along with Oasis WAX µElution plates and Oasis HLB 30 mg plates (Waters, Milford, MA, USA) for PFAS and positive-control extraction, respectively. […] The sorbent was then washed with 1% formic acid and water. Samples were eluted in 2% ammonia in methanol for analysis. Similarly, HLB plates were conditioned with methanol and water before sample was loaded onto the sorbent. The wells were then washed with 5% methanol in water and water before elution in methanol. For samples not undergoing SPE, the supernatant of the crashed assay sample was diluted in mobile phase prior to analysis. The first 1.5 min of the run was diverted to waste to prevent salt contamination.

plasma protein = settings: cited from earlier work; for Mean fu: fraction unbound in plasma, input for IVIVE calculations
[2] = IVIVE: steady-state concentration (Css), generic HTTK model; set-up: species or system human; settings: for Css (mg/L) / Css (uM): Assuming 1 mg/kg/day dose rate, BW 70 kg; for CLhep: QL 1500000 uL/min; for Fub: fub=fup/(B:P), Fub set to 1 if needed; for CLint: scaled to whole liver: HPGL 110 mill cells/g, Vl 1596 g
Protocol: IVIVE was performed as previously described to calculate human steady-state concentrations (Css). Briefly, experimental plasma protein binding data presented elsewhere were transformed to fraction unbound in blood using blood-to-plasma partitioning values. Experimental Clint values generated here are used in conjunction with relevant liver scalars to scale up to estimate whole liver clearance. […] Once Css values were established, these were used with the PFAS-specific in vitro POD data to calculate the administered equivalent doses (AEDs) using reverse dosimetry. […] The fifth-percentile AC50 value was used to define the in vitro POD. All relevant inputs, scalars, and calculations are provided in Supplementary Information, as indicated in the results.

| SMILES | CLint for HTTK [1] | in vitro CLint exp assay [1] | Mean fu (plasma protein) | Css (mg/L) [2] [mg/L] | Css (uM) [2] [µM] | CLhep [2] [L/h] | Fub [2] | CLint [2] [µL/min] | Unadj Clint [1] | further results |
| --- | --- | --- | --- | --- | --- | --- | --- | --- | --- | --- |
| O=C(O)C(F)(F)C(F)(F)C(F)(F)C(F)(F)C(F)(F)C(F)(F)C(F)(F)C(F)(F)F [Perfluorononanoic acid (PFNA)] | 0 | 0 | 0.0016 | 150.84 | 325.11 | 0.000 | 0.002909 | 0 |  |  |
| O=C(O)C(F)(F)C(F)(F)C(F)(F)OC(F)(F)F | 1.5 | 1.5 | 0.0117 | 6.16 | 22.00 | 0.335 | 0.02127 | 263340 |  |  |
| O=S(=O)(O)C(F)(F)C(F)(F)C(F)(F)C(F)(F)C(F)(F)C(F)(F)C(F)(F)C(F)(F)F [Perfluorooctanesulfonate (PFOS-)] | 0 | 0 | 0.0047 | 51.35 | 102.71 | 0.000 | 0.008545 | 0 |  |  |
| NS(=O)(=O)C(F)(F)C(F)(F)C(F)(F)C(F)(F)C(F)(F)C(F)(F)C(F)(F)C(F)(F)F [Perfluorooctane sulfonamide (PFOSA)] | 17.84 | 17.84 | 0.0039 | 2.16 | 4.33 | 1.313 | 0.007091 | 3131990 |  |  |
| O=C(O)C(F)(F)C(F)(F)C(F)(F)F [Perfluorobutanoic acid] |  |  |  |  |  |  |  |  | 0.08 |  |
| O=C(O)C(F)(F)C(F)(F)C(F)F [4H-Perfluorobutanoic acid] |  |  |  |  |  |  |  |  | 0.90 |  |
| CCNS(=O)(=O)C(F)(F)C(F)(F)C(F)(F)C(F)(F)C(F)(F)C(F)(F)C(F)(F)C(F)(F)F | 8.96 | 8.96 | 0.0289 | 0.58 | 1.10 | 4.700 | 0.05255 | 1573018 |  |  |
| O=C(O)C(F)(F)C(F)(F)C(F)(F)C(F)(F)F [PFPeA, Perfluoropentanoic acid] |  |  |  |  |  |  |  |  | 2.13 | fup (fraction unbound in plasma) (plasma protein; human plasma): 0.0440; Css ([2]; human steady-state concentration, 1 mg/kg/day exposure rate, loss of parent compound only): 20.78 µM |
| O=S(=O)([O-])C(F)(F)C(F)(F)C(F)(F)C(F)(F)C(F)(F)C(F)(F)C(F)(F)C(F)(F)C(F)(F)C(F)(F)F.[Na+] [Sodium perfluorodecanesulfonate (NaPFDS)] | 0 | 0.00 | 0.0528 | 4.57 | 7.62 | 0.000 | 0.096 | 0 |  |  |
| O=C(O)C(F)(F)C(F)(F)C(F)(F)C(F)(F)C(F)(F)C(F)(F)C(F)(F)C(F)(F)C(F)(F)C(F)(F)C(F)(F)C(F)(F)F [Perfluorotridecanoic acid] | 0 | 0 | 0.0433 | 5.57 | 8.39 | 0.000 | 0.07873 | 0 | 0.00 |  |
| O=C(O)C(F)(F)C(F)(F)OC(F)(F)F | 0 | 0 | 0.0764 | 3.16 | 13.74 | 0.000 | 0.1389 | 0 |  |  |
| O=C(O)C(F)(F)C(F)(F)C(F)(F)C(F)(F)C(F)(F)C(F)(F)C(F)(F)F [Perfluorooctanoic acid (PFOA)] | 0 | 0 | 0.001 | 241.34 | 582.99 | 0.000 | 0.001818 | 0 |  |  |
| O=C(O)C(F)(F)C(F)(F)C(F)(F)C(F)(F)C(F)(F)C(F)(F)C(F)(F)C(F)(F)C(F)(F)C(F)(F)F [Perfluoroundecanoic acid] |  |  |  |  |  |  |  |  | 0.00 |  |
| O=C(O)CCC(F)(F)C(F)(F)C(F)(F)C(F)(F)C(F)(F)C(F)(F)F [6:3 Fluorotelomer carboxylic acid] |  |  |  |  |  |  |  |  | 5.05 |  |
| O=S(=O)([O-])C(F)(F)C(F)(F)C(F)(F)C(F)(F)C(F)(F)C(F)(F)C(F)(F)C(F)(F)F.[K+] [Potassium perfluorooctanesulfonate] |  |  |  |  |  |  |  |  | 2.96 |  |
| N.O=C(O)C(F)(F)C(F)(F)C(F)(F)C(F)(F)C(F)(F)C(F)(F)C(F)(F)F [Ammonium perfluorooctanoate] |  |  |  |  |  |  |  |  | 2.06 |  |
| O=C(O)C(F)(F)C(F)(F)C(F)(F)C(F)(F)C(F)(F)C(F)(F)C(F)(F)F [Sodium perfluorooctanoate] |  |  |  |  |  |  |  |  | 2.34 |  |
| O=S(=O)(OCC(F)(F)F)C(F)(F)C(F)(F)C(F)(F)C(F)(F)F [2,2,2-Trifluoroethyl perfluorobutanesulfonate] | 0 | 0.00 | 0.0039 | 65.09 | 170.41 | 0.000 | 0.006742 | 0 | 2.84 |  |
| O=C(O)C(F)(F)C(F)(F)C(F)(F)C(F)(F)C(F)(F)C(F)(F)C(F)(F)C(F)(F)C(F)(F)C(F)(F)C(F)(F)C(F)(F)C(F)(F)F [Perfluorotetradecanoic acid] |  |  |  |  |  |  |  |  | 0.00 |  |
| O=C([O-])C(F)(F)C(F)(F)C(F)(F)C(F)(F)C(F)(F)C(F)(F)C(F)(F)F.[K+] [Potassium perfluorooctanoate] |  |  |  |  |  |  |  |  | 0.00 |  |
| O=C(O)C(F)(F)C(F)(F)F [Perfluoropropanoic acid] |  |  |  |  |  |  |  |  | 0.59 |  |
| O=S(=O)(Cl)C(F)(F)C(F)(F)C(F)(F)C(F)(F)C(F)(F)C(F)(F)C(F)(F)C(F)(F)F [Perfluoro-1-octanesulfonyl chloride] |  |  |  |  |  |  |  |  | 0.00 |  |
| O=S(=O)([O-])C(F)(F)C(F)(F)C(F)(F)C(F)(F)F.[K+] [Potassium perfluorobutanesulfonate] |  |  |  |  |  |  |  |  | 0.00 |  |
| O=C(O)C(F)(F)C(F)(F)C(F)(F)OC(F)(F)F [Perfluoro(4-methoxybutanoic) acid] |  |  |  |  |  |  |  |  | 1.50 |  |
| O=S(=O)([O-])C(F)(F)C(F)(F)C(F)(F)C(F)(F)C(F)(F)C(F)(F)C(F)(F)C(F)(F)C(F)(F)C(F)(F)F.[Na+] [Sodium perfluorodecanesulfonate] |  |  |  |  |  |  |  |  | 3.39 |  |
| O=C(O)C(F)(F)OC(F)(F)C(F)(F)OC(F)(F)F [Perfluoro-3,6-dioxaheptanoic acid] |  |  |  |  |  |  |  |  | 0.00 |  |
